# Laboratory results as given in US20020028255A1, “Pesticide treatment” (priority 1998, published 2002).
# Tests used:
# [1] = Kinetics of decomposition of the dione in water in the presence of chlorine (ppm); format: physicochemical
# Description: (A) The kinetics of the decomposition of 2-cyano-3-cyclopropyl-1-(2-methylsulphonyl-4-trifluoromethylphenyl)propan-1,3-dione in water was studied. The following Table summarizes the results obtained at pH7 or pH9 in the presence of 0.1 or 0.5 ppm of chlorine. The percentages given are of degradation of the dione to the corresponding benzoic acid, 2-methylsulphonyl-4-trifluoromethyl-benzoic acid.
# [2] = Vials of dione solution in water (500 ppt) treated with water containing chlorine (ppb); format: physicochemical; conditions: dione 500 ppt, ambient temperature
# Method: (B) Vials containing 1 ml of solutions in water of the dione used in (A) (at a concentration of 500 ppt) were treated at ambient temperature with 1 ml of water containing 0.1 or 0.5 ppb concentrations of chlorine.
# [3] = Cleaning of a contaminated 1000 l tank with sodium hypochlorite solution; format: physicochemical; conditions: tank wet with 0.02% (w/w) suspension; 10 l of 0.01% (w/w) sodium hypochlorite, one hour
# Description: A 1000 l container or tank was used to prepare a suspension of dione pesticide (2-cyano-3-cyclopropyl- 1-(2-methylsulphonyl-4-trifluoromethylphenyl)propan-1,3-dione). The suspension was used to destroy the weeds in a crop growing area. The container was then still wet with aqueous suspension of 0.02% (w/w) of the pesticide.
# 10 l of 0.01% (w/w) solution of sodium hypochlorite is poured into the tank and stirred (so as to contact the whole inner surface of the container) and left for one hour.
# Example 3 is repeated except that the pesticide is an isoxazole (5-cyclopropyl-4-(2-methylsulphonyl-4-trifluoromethylbenzoyl)isoxazole;IFT) and the pH of the hypochlorite solution is 8.5 (adjusted using NaOH).
# [4] = tested on: Maize (Pioneer 3394) seeds; test: Damage (bleaching of the shoot) to maize seeds bathed in herbicide solutions, control vs hypochlorite-sterilized seed; format: in vivo; conditions: for damage to maize: low concentration
# Method: Maize (Pioneer 3394) seeds were placed in a solution of 1% (w/w) sodium hypochlorite for 30 seconds, then rinsed thoroughly for 5 minutes with sodium bicarbonate solution (5% w/w).
# Replicates of 20 seeds from each treatment were placed in petri dishes and bathed in 25 ml of the following solutions for 24 hours (covered and incubated at 25° C. in a growth cabinet).
# After 24 hours the seeds were removed from the bathing solutions, rinsed thoroughly in water and planted (in green light- as some of the seeds had started to produce a coleoptile which is sensitive to daylight). Seeds were planted in duplicate in 10 cm×10 cm pots containing non-sterile loam and were overhead watered 3 times daily.
# Assessments were made 7 and 14 DAT (days after treatment).
# [5] = Decomposition of DKN in bleach, followed by TLC; format: physicochemical; conditions: 1 g in 25 ml bleach (14 to 15% chlorine), ambient temperature, after 30 minutes
# Method: 2-Cyano-3-cyclopropyl-1-2-methylsulphonyl-4-trifluoromethylphenyl)propan-1,3-dione(DKN:1 g) was added to 25 ml of bleach (containing 14 to 15% chlorine). The mixture was stirred at ambient temperature. After 3 minutes a clear solution formed. […] The main product was the corresponding benzoic acid.
# [6] = control seed, 1.0 μg ml^−1, bathed 24 hours
# [7] = control seed, 10.0 μg ml^−1, bathed 24 hours
# [8] = sterilized seed (1% sodium hypochlorite), 1.0 μg ml^−1, bathed 24 hours
# [9] = sterilized seed (1% sodium hypochlorite), 10.0 μg ml^−1, bathed 24 hours
compound,measurement,setting,value
CS(=O)(=O)c1cc(C(F)(F)F)ccc1C(=O)C(C#N)C(=O)C1CC1 (stereo not drawn) [DKN],degradation of the dione to the corresponding benzoic acid,"[1]; pH 7, Cl2 0.1 ppm, 15 min",100%
same,degradation of the dione to the corresponding benzoic acid,"[1]; pH 7, Cl2 0.5 ppm, 15 min",100%
same,degradation of the dione to the corresponding benzoic acid,"[1]; pH 9, Cl2 0.1 ppm, 15 min",50%
same,degradation of the dione to the corresponding benzoic acid,"[1]; pH 9, Cl2 0.1 ppm, 60 min",100%
same,degradation of the dione to the corresponding benzoic acid,"[1]; pH 9, Cl2 0.5 ppm, 15 min",100%
same,degradation of the dione,"[2]; pH 5, Cl2 0.1 ppb, 15 min",100%
same,degradation of the dione,"[2]; pH 5, Cl2 0.5 ppb, 15 min",100%
same,degradation of the dione,"[2]; pH 7, Cl2 0.1 ppb, 15 min",100%
same,degradation of the dione,"[2]; pH 7, Cl2 0.5 ppb, 15 min",100%
same,degradation of the dione,"[2]; pH 9, Cl2 0.1 ppb, 60 min",>90%
same,degradation of the dione,"[2]; pH 9, Cl2 0.5 ppb, 15 min",100%
same,disappearance of pesticide from the tank,[3],All of the dione pesticide disappeared
same,% Damage (bleaching of the shoot),[4]; [6],0%
same,% Damage (bleaching of the shoot),[4]; [7],0%
same,% Damage (bleaching of the shoot),"[4]; control seed, 100.0 μg ml^−1, bathed 24 hours",87%
same,damage to maize,[4]; 1 μg ml^−1,No damage
same,% Damage (bleaching of the shoot),[4]; [8],0%
same,% Damage (bleaching of the shoot),[4]; [9],0%
same,% Damage (bleaching of the shoot),"[4]; sterilized seed (1% sodium hypochlorite), 100.0 μg ml^−1, bathed 24 hours",11%
same,DKN remaining by thin layer chromatography,[5],no DKN was detected
"CS(=O)(=O)c1cc(C(F)(F)F)ccc1C(=O)c1cnoc1C1CC1 [IFT, 5-cyclopropyl-4-(2-methylsulphonyl-4-trifluoromethylbenzoyl)isoxazole]",% Damage (bleaching of the shoot),"[4]; control seed, 0.1 μg ml^−1, bathed 24 hours",0%
same,% Damage (bleaching of the shoot),[4]; [6],20%
same,% Damage (bleaching of the shoot),[4]; [7],98%
same,damage to maize,[4]; 0.1 μg ml^−1,No damage
same,% Damage (bleaching of the shoot),"[4]; sterilized seed (1% sodium hypochlorite), 0.1 μg ml^−1, bathed 24 hours",0%
same,% Damage (bleaching of the shoot),[4]; [8],13%
same,% Damage (bleaching of the shoot),[4]; [9],100%
